Experimental data from US12258336B2, “Preparation of seimicarbazide-sensitive amine oxidase inhibitor and use thereof” (SHANGHAI ENNOVABIO PHARMACEUTICALS CO., LTD., priority 2018, dated 2025).
Like-named read-outs stand apart in the source and are kept apart here. Values belong to the compound of their own block, whether it stands above or below them.

What was measured:
rat SSAO protein = target: T1, rat SSAO protein (Rattus norvegicus, UniProt O08590); assay: In vitro inhibitory activity on SSAO/VAP-1 (MAO-Glo assay), rat; format: biochemical
T1 construct: Eli Lilly (provided, not a catalogue product)
T1 sequence (O08590 1-763): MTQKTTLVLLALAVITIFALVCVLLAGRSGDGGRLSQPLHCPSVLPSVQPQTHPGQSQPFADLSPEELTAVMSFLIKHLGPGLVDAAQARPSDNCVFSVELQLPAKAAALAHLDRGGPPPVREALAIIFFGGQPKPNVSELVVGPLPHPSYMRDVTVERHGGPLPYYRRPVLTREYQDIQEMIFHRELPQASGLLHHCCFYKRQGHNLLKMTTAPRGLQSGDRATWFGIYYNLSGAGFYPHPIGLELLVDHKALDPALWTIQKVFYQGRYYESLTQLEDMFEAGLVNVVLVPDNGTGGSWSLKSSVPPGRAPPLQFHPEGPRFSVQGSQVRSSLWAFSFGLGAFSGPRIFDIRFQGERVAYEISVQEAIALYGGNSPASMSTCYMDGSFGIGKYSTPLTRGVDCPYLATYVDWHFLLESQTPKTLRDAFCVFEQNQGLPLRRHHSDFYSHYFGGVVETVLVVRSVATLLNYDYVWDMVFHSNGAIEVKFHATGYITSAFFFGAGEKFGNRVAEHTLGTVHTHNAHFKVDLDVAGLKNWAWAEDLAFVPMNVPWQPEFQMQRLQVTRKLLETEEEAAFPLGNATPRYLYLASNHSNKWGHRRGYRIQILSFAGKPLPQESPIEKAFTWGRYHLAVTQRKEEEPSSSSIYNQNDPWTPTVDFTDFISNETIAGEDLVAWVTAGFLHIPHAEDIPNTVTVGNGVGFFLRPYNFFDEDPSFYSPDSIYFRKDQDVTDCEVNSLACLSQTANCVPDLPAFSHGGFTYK
Protocol: This assay was used to evaluate the in vitro inhibitory activity of the compounds on SSAO/VAP-1 of different species. Recombinant human SSAO protein, mouse SSAO protein or rat SSAO protein (provided by Eli Lilly) were used. The enzyme activity detection kit, MAO-Glo Assay kit (V1402) was purchased from Promega. Enzyme reaction buffer (50 mM HEPES, 120 mM NaCl, 5 mM KCl, 2 mM CaCl2, 1.4 mM MgCl2, 0.001% Tween-20, pH7.4) was prepared. The test compound was dissolved in DMSO and diluted by 3-fold concentration in gradient. The final concentration of test compound in a 10 μL reaction system was 1 μM to 0.05 nM when SSAO was detected. The content of DMSO in the detection reaction was 1%. After the solution of test compound in DMSO was diluted in the enzyme reaction buffer at a volume ratio of 1:25, 2.5 μL of which was added to each well of detection plate, two replicates for each concentration. 5 μL of SSAO protein diluted in the enzyme reaction buffer was added to each well, the final concentration of which was 10 nM to 80 nM in 10 μL reaction system. The mixture was incubated at room temperature for 10 minutes. 2.5 μL of the reaction substrate diluted in the enzyme reaction buffer was added to each well, the final concentration of which was 10 μM in 10 μL reaction system. After the mixture was reacted at room temperature for 120 minutes, 10 μL of detection reagent was added to each well. The reaction solution was incubated for 20 minutes at room temperature, and the plate was read with Synergy Neo 2 for detection. The value was converted into inhibition rate by the following formula: Inhibition rate=(Signalpositive−Signaltest)/(Signalpositive−Signalnegative)×100%
Signalpositive was positive control without test compound. Signalnegative was negative control without test compound and SSAO enzyme, and Signaltest was detection value of each compound at different concentrations. IC50 value was calculated by using 4 parameter curve fitting.

SSAO/VAP-1 = target: T2, SSAO/VAP-1 (Rattus norvegicus, UniProt O08590); assay: Inhibitory activity on SSAO/VAP-1 in animal tissues after oral administration; format: in vivo; settings: 24 hours post single administration, mean ± SEM
T2 construct: from tissue; host or cells: rat plasma, brain, retina, small intestine, lung, liver, kidney
T2 sequence (O08590 1-763): T1 sequence (O08590 1-763)
Protocol: MAO-Glo Assay kit (Promega, V1402) was used to determine the activity of SSAO in animal tissues. After test compounds were adminstered to the animal, SSAO enzyme activity was calculated by measuring the activity of the monoamine oxidases in the animal tissue homogenate that was insensitive to MAO inhibitors Clogyline and Pargyline. The compounds were orally administered to rats at different doses, and same volume of vehicle was orally administered to control animals. Animal plasma, brain, retina, small intestine, lung, liver, and kidney were respectively collected 24 hours after administration (the animals were perfused with PBS before the collection of small intestine, lung, liver, and kidney) and stored in a −80° C. refrigerator until analysis. Each tissue was homogenized in tissue homogenate lysis buffer (20 mM HEPES, pH 7.4, 150 mM NaCl, 1 mM EDTA, 1 mM EGTA, 1% Triton X-100 and 1× Roche Complete protease inhibitor tablet). The homogenate was centrifuged at 12000 rpm at 4° C. for 30 minutes to remove tissue fragments. 5 μL of supernatant and 2 μL of mixture of Clogyline (10 μM) and Pargyline (10 μM) were incubated for 10 minutes at room temperature. Then 2 μL of substrate from MAO-Glo assay kit was added to the mixture, and reacted at room temperature for 60 minutes. Detection reagents were added to quench the reaction according to instructions. The fluorescein data was read by Biotek Neo2. The activity of monoamine oxidase in tissues that is not sensitive to MAO inhibitors was used to represent the activity of SSAO. Percentage of SSAO activity in administered animals was compared with that of control animals to calculate the compound inhibition rate.

[1] = brain, read-out: remaining SSAO activity percentage (SSAO activity %), Brain
[2] = kidney, read-out: remaining SSAO activity percentage (SSAO activity %), kidney
[3] = liver, read-out: remaining SSAO activity percentage (SSAO activity %), Liver
[4] = lung, read-out: remaining SSAO activity percentage (SSAO activity %), Lung
[5] = plasma, read-out: remaining SSAO activity percentage (SSAO activity %), Plasma
[6] = retina, read-out: remaining SSAO activity percentage (SSAO activity %), Retina
[7] = small intestine, read-out: remaining SSAO activity percentage (SSAO activity %), Small intestine

IC50 (rat SSAO protein): < 0.1 µM
remaining activity at 0.005 mg/kg (SSAO/VAP-1; [1]): 98.3 ± 25.4%
remaining activity at 0.005 mg/kg (SSAO/VAP-1; [2]): 99.2 ± 4.1%
remaining activity at 0.005 mg/kg (SSAO/VAP-1; [3]): 108 ± 33.5%
remaining activity at 0.005 mg/kg (SSAO/VAP-1; [4]): 94.9 ± 17.2%
remaining activity at 0.005 mg/kg (SSAO/VAP-1; [5]): 61.7 ± 8.2%
remaining activity at 0.005 mg/kg (SSAO/VAP-1; [6]): 65 ± 14%
remaining activity at 0.025 mg/kg (SSAO/VAP-1; [1]): 143 ± 68.3%
remaining activity at 0.025 mg/kg (SSAO/VAP-1; [2]): 58.7 ± 12.1%
remaining activity at 0.025 mg/kg (SSAO/VAP-1; [3]): 14.4 ± 8.1%
remaining activity at 0.025 mg/kg (SSAO/VAP-1; [4]): 64 ± 20.3%
remaining activity at 0.025 mg/kg (SSAO/VAP-1; [5]): 58.6 ± 4.2%
remaining activity at 0.025 mg/kg (SSAO/VAP-1; [6]): 49.1 ± 7.1%
remaining activity at 0.12 mg/kg (SSAO/VAP-1; [1]): 75.4 ± 7.4%
remaining activity at 0.12 mg/kg (SSAO/VAP-1; [2]): 46.3 ± 3.5%
remaining activity at 0.12 mg/kg (SSAO/VAP-1; [3]): 40.1 ± 8.2%
remaining activity at 0.12 mg/kg (SSAO/VAP-1; [4]): 39.8 ± 11.3%
remaining activity at 0.12 mg/kg (SSAO/VAP-1; [5]): 33.7 ± 1.9%
remaining activity at 0.12 mg/kg (SSAO/VAP-1; [6]): 25.1 ± 5.3%
remaining activity at 0.12 mg/kg (SSAO/VAP-1; [7]): 96.9 ± 21.7%
remaining activity at 0.6 mg/kg (SSAO/VAP-1; [1]): 26.5 ± 11.8%
remaining activity at 0.6 mg/kg (SSAO/VAP-1; [2]): 26.2 ± 10.1%
remaining activity at 0.6 mg/kg (SSAO/VAP-1; [3]): 3 ± 7.6%
remaining activity at 0.6 mg/kg (SSAO/VAP-1; [4]): 14.1 ± 3.8%
remaining activity at 0.6 mg/kg (SSAO/VAP-1; [5]): 12.9 ± 2.2%
remaining activity at 0.6 mg/kg (SSAO/VAP-1; [6]): 8 ± 1.2%
remaining activity at 0.6 mg/kg (SSAO/VAP-1; [7]): 38.9 ± 3.2%
remaining activity at 3 mg/kg (SSAO/VAP-1; [1]): 22.1 ± 7.7%
remaining activity at 3 mg/kg (SSAO/VAP-1; [2]): 0.7 ± 1.8%
remaining activity at 3 mg/kg (SSAO/VAP-1; [3]): 5.3 ± 3.2%
remaining activity at 3 mg/kg (SSAO/VAP-1; [4]): 4.6 ± 2.5%
remaining activity at 3 mg/kg (SSAO/VAP-1; [5]): 1.8 ± 0.2%
remaining activity at 3 mg/kg (SSAO/VAP-1; [6]): 5.2 ± 2.4%
remaining activity at 3 mg/kg (SSAO/VAP-1; [7]): 11.1 ± 4.4%
remaining activity at 15 mg/kg (SSAO/VAP-1; [1]): 4 ± 1.7%
remaining activity at 15 mg/kg (SSAO/VAP-1; [2]): 2.4 ± 1.3%
remaining activity at 15 mg/kg (SSAO/VAP-1; [3]): -2.4 ± 5.4%
remaining activity at 15 mg/kg (SSAO/VAP-1; [4]): 2.2 ± 0.2%
remaining activity at 15 mg/kg (SSAO/VAP-1; [5]): 1.1 ± 0.4%
remaining activity at 15 mg/kg (SSAO/VAP-1; [6]): 3 ± 2.2%
remaining activity at 15 mg/kg (SSAO/VAP-1; [7]): 1.1 ± 0.9%
SMILES: NC/C(=C\F)COc1cnc(N2CCN(C3COC3)CC2)nc1 [Example 4, (E)-3-fluoro-2-(((2-(4-(oxbutan-3-yl)piperazin-1-yl)pyrimidin-5-yl)oxo)methyl)prop-2-en-1-amine]

IC50 (rat SSAO protein): < 0.1 µM
remaining activity at 0.6 mg/kg (SSAO/VAP-1; [1]): 49.1 ± 21.2%
remaining activity at 0.6 mg/kg (SSAO/VAP-1; [5]): 24.3 ± 5.2%
remaining activity at 0.6 mg/kg (SSAO/VAP-1; [6]): 28.7 ± 8.5%
SMILES: COC1CC2CC1CN2c1ncc(OC/C(=C/F)CN)cn1 (stereo not drawn) [Example 2]
